The record followed here is patent US11986471B2, “Compounds and methods of use” (Tango Therapeutics, Inc., priority 2018, dated 2024).

The structures appear in SMILES notation.

Experiment [1] addresses T1, PRMT5 (Homo sapiens, UniProt O14744).
T1 construct: purchased Viva (custom protein)
Kind of experiment: PRMT5 IC50 assay with no cofactor. Format: biochemical. In outline: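 IC50 values were measured against human PRMT5 with SAM, with MTA, or with no cofactor. Ki was derived from IC50 as Ki=IC50/1.5 with SAM and Ki=IC50/13.5 with MTA, and the Ki(SAM)/Ki(MTA) ratio was then taken.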

In experiment [2] the target is T1, PRMT5. Kind of experiment: PRMT5 IC50 assay in the presence of MTA as cofactor. The conditions noted are these: for IC50: PRMT5, MTA as cofactor. The format is biochemical. In outline: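 Potency against PRMT5 is compared across cofactor states, where IC50 equals Ki×1.5 with SAM present and Ki×13.5 with MTA present.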
Experiment [3] concerns HAP1 MTAP-deleted. The experiment is described as follows: SDMA in-cell western assay, HAP1 MTAP-deleted cell line. The format is cell-based. Particulars: for IC50: Homo sapiens, HAP1 MTAP-deleted cell line; for MTAP Intact/Deleted Ratio: IC50 ratio HAP1 MTAP-intact / HAP1 MTAP-deleted. In outline:
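These are IC50 values from an in-cell western measuring SDMA. The HAP1 cells used carry no MTAP, in contrast to the isogenic partner line with endogenous MTAP expression.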

Experiment [4] has as its target T1, PRMT5. Kind of experiment: PRMT5 IC50 assay in the presence of SAM as cofactor. The format is biochemical. The method in brief: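 Ki conversion: SAM arm, Ki=IC50/1.5; MTA arm, Ki=IC50/13.5. No-cofactor arm reported as IC50 only. Selectivity expressed as Ki(SAM)/Ki(MTA).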
In experiment [5] the test system is HAP1 MTAP-intact. The experiment is described as follows: SDMA in-cell western assay, HAP1 MTAP-intact cell line. The conditions noted are these: Homo sapiens. The format is cell-based. In outline:
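Potency reflects cellular SDMA reduction, detected by in-cell western, in HAP1 cells with or without MTAP (endogenous expression versus null).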

Setting [6] is: ratio between the Ki in the presence of SAM and the Ki in the presence of MTA.
Setting [7] is: ratio between Ki in the presence of SAM and Ki in the presence of MTA.

T1 sequence (O14744 whole entry): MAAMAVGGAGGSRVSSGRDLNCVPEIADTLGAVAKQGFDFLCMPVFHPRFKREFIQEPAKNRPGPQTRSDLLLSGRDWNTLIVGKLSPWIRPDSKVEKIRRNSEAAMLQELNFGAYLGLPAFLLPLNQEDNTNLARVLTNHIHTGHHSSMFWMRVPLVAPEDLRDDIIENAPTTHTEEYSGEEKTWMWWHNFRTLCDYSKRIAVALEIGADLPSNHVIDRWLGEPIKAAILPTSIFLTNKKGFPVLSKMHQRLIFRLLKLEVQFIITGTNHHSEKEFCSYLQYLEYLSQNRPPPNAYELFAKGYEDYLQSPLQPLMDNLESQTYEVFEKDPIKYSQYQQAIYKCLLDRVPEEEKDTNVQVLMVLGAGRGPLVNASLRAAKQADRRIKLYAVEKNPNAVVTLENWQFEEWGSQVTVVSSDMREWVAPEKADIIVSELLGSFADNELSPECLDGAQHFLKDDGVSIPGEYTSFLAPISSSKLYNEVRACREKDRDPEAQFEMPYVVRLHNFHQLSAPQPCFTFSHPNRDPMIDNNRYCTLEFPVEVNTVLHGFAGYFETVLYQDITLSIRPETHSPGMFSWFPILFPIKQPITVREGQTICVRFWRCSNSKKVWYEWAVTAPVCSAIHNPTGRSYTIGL
T1 sequence (Q9BQA1 whole entry partner): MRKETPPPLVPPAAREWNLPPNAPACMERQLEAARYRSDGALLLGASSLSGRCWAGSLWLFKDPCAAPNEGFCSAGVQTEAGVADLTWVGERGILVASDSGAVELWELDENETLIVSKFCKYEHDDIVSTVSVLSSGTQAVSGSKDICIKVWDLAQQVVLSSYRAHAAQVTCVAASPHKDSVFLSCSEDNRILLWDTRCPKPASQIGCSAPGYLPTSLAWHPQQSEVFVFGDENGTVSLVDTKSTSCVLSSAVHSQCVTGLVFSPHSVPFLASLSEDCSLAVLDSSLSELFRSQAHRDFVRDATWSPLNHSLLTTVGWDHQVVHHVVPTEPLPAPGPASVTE

In general, IC50 refers to the concentration at which inhibition is half-maximal. `Cc1ncoc1COc1ccc2c(c1C)CCN(C[C@@H](O)CNC(=O)c1cc(NC3CCC3)nc(N3CCN(C)CC3)c1)C2` [Compound 503, 2-(cyclobutylamino)-N-[(2S)-2-hydroxy-3-{5-methyl-6-[(4-methyl-1,3-oxazol-5-yl)methoxy]-1,2,3,4-tetrahydroisoquinolin-2-yl}propyl]-6-(4-methylpiperazin-1-yl)pyridine-4-carboxamide]: the IC50 in experiment [1] was 500 to 5000 nM; in experiment [2] it was 50 to 500 nM; in experiment [3], below 1000 nM; in experiment [4] it was 50 to 500 nM; in experiment [5], at least 10 µM. Moreover, the “SAM/MTA Ratio” value in experiment [2] (setting [6]) is “A (a Ki ratio greater than or equal to 10 fold between the Ki in the presence of SAM and the Ki in the presence of MTA)”. Moreover, the “MTAP Intact/Deleted Ratio” value in experiment [3] is “A* (an IC50 ratio greater than or equal to 10 fold between the IC50 in the HAP1 MTAP-intact cell line and the HAP1 MTAP-deleted cell line)”.
With `CCCC(=O)N1CCC(Nc2cc(C(=O)NC[C@H](O)CN3CCc4cc(OCc5cnco5)ccc4C3)ccn2)CC1` [Compound 431, 2-[(1-butanoyl-4-piperidyl)amino]-N-[(2S)-2-hydroxy-3-[6-(oxazol-5-ylmethoxy)-3,4-dihydro-1H-isoquinolin-2-yl]propyl]pyridine-4-carboxamide], the IC50 in experiment [1] is 500 to 5000 nM; in experiment [2], 50 to 500 nM; in experiment [3], below 1000 nM; in experiment [4] it was 50 to 500 nM; in experiment [5], 1 to 10 µM. Further, in experiment [2] (setting [6]), the “SAM/MTA Ratio” value was “A (a Ki ratio greater than or equal to 10 fold between the Ki in the presence of SAM and the Ki in the presence of MTA)”. In addition, the “MTAP Intact/Deleted Ratio” value in experiment [3] is “B* (an IC50 ratio greater than or equal to 3 fold but lower than 10 fold between the IC50 in the HAP1 MTAP-intact cell line and the HAP1 MTAP-deleted cell line)”.
`O=C(NC[C@H](O)CN1CCc2c(ccc(OCc3cnco3)c2Cl)C1)c1ccnc(NC2CC(C(F)F)C2)c1` (stereo partly drawn) [Compound 317, (S)—N-(3-(5-chloro-6-(oxazol-5-ylmethoxy)-3,4-dihydroisoquinolin-2(1H)-yl)-2-hydroxypropyl)-2-((3-(difluoromethyl)cyclobutyl)amino)isonicotinamide]: the IC50 is at least 5000 nM in experiment [1] (read-out: No Co-factor IC50); 50 to 500 nM in experiment [2]; at least 10000 nM in experiment [3]; 500 to 5000 nM in experiment [4]; at least 10 µM in experiment [5]. Moreover, in experiment [2] (setting [7]), the “SAM/MTA Ratio” value was “A (a Ki ratio greater than or equal to 10 fold between the Ki in the presence of SAM and the Ki in the presence of MTA)”. Further, the “MTAP Intact/Deleted Ratio” value in experiment [3] was “C* (an IC50 ratio of less than 3 fold between the IC50 in the HAP1 MTAP-intact cell line and the HAP1 MTAP-deleted cell line)”.
For the molecule `Cc1ncoc1COc1ccc2c(c1)CCN(C[C@@H](O)CNC(=O)c1cc(NC3CC4(CC4)C3)nc(N3CCN(C(=O)C4CC4)CC3)c1)C2` [Compound 611, (S)-2-(4-(cyclopropanecarbonyl)piperazin-1-yl)-N-(2-hydroxy-3-(6-((4-methyloxazol-5-yl)methoxy)-3,4-dihydroisoquinolin-2(1H)-yl)propyl)-6-(spiro[2.3]hexan-5-ylamino)isonicotinamide], the IC50 in experiment [1] was 50 to 500 nM; in experiment [2], below 50 nM; in experiment [3], below 1000 nM; in experiment [4], 50 to 500 nM; in experiment [5] it was below 1 µM. Further, the “SAM/MTA Ratio” value in experiment [2] (setting [6]) is “A (a Ki ratio greater than or equal to 10 fold between the Ki in the presence of SAM and the Ki in the presence of MTA)”. Also, the “MTAP Intact/Deleted Ratio” value in experiment [3] was “B* (an IC50 ratio greater than or equal to 3 fold but lower than 10 fold between the IC50 in the HAP1 MTAP-intact cell line and the HAP1 MTAP-deleted cell line)”.
Regarding `CC(=O)N1CCC(Nc2cc(C(=O)NC[C@H](O)CN3CCc4cc(OCc5ocnc5C)c(F)cc4C3)cc(N3CCCCC3)n2)CC1` [Compound 623], the IC50 in experiment [1] was 50 to 500 nM; in experiment [2] it was 50 to 500 nM; in experiment [3], below 1000 nM; in experiment [4], 50 to 500 nM; in experiment [5] it was 1 to 10 µM. In experiment [2] (setting [6]), the “SAM/MTA Ratio” value is “A (a Ki ratio greater than or equal to 10 fold between the Ki in the presence of SAM and the Ki in the presence of MTA)”. In addition, the “MTAP Intact/Deleted Ratio” value in experiment [3] was “A* (an IC50 ratio greater than or equal to 10 fold between the IC50 in the HAP1 MTAP-intact cell line and the HAP1 MTAP-deleted cell line)”.
Regarding `Cc1c(OCc2cnco2)ccc2c1CCN(C[C@@H](O)CNC(=O)c1cc(NC3CCN(C(=O)C(C)C)CC3)ncn1)C2` [Compound 520, N-[(2S)-2-hydroxy-3-{5-methyl-6-[(1,3-oxazol-5-yl)methoxy]-1,2,3,4-tetrahydroisoquinolin-2-yl}propyl]-6-{[1-(2-methylpropanoyl)piperidin-4-yl]amino}pyrimidine-4-carboxamide], the IC50 in experiment [1] is at least 5000 nM; in experiment [2], 50 to 500 nM; in experiment [3], 1000 to 10000 nM; in experiment [4], 50 to 500 nM; in experiment [5], at least 10 µM. Also, the “SAM/MTA Ratio” value in experiment [2] (setting [6]) is “A (a Ki ratio greater than or equal to 10 fold between the Ki in the presence of SAM and the Ki in the presence of MTA)”. Also, the “MTAP Intact/Deleted Ratio” value in experiment [3] was “B* (an IC50 ratio greater than or equal to 3 fold but lower than 10 fold between the IC50 in the HAP1 MTAP-intact cell line and the HAP1 MTAP-deleted cell line)”.
As for `CC(C)(C)N1CCN(c2nc(NC3COC3)cc(C(=O)NC[C@H](O)CN3CCc4c(ccc(OCc5cnco5)c4Cl)C3)n2)CC1` [Compound 370, (S)-2-(4-(tert-butyl)piperazin-1-yl)-N-(3-(5-chloro-6-(oxazol-5-ylmethoxy)-3N-dihydroisoquinolin-2(1H)-yl)-2-hydroxypropyl)-6-(oxetan-3-ylamino)pyrimidine-4-carboxamide], the IC50 in experiment [1] (read-out: No Co-factor IC50) was at least 5000 nM; in experiment [2] it was 50 to 500 nM; in experiment [3], 1000 to 10000 nM; in experiment [4], 50 to 500 nM; in experiment [5] it was at least 10 µM. Moreover, in experiment [2] (setting [7]), the “SAM/MTA Ratio” value was “A (a Ki ratio greater than or equal to 10 fold between the Ki in the presence of SAM and the Ki in the presence of MTA)”. The “MTAP Intact/Deleted Ratio” value in experiment [3] was “C* (an IC50 ratio of less than 3 fold between the IC50 in the HAP1 MTAP-intact cell line and the HAP1 MTAP-deleted cell line)”.
Regarding `CC(=O)N1CC(Nc2cc(C(=O)NC[C@H](O)CN3CCc4cc(OCc5ocnc5C)ccc4C3)nc(C(C)C)n2)C1` [Compound 568, (S)-6-((1-acetylazetidin-3-yl)amino)-N-(2-hydroxy-3-(6-((4-methyloxazol-5-yl)methoxy)-3,4-dihydroisoquinolin-2(1H)-yl)propyl)-2-isopropylpyrimidine-4-carboxamide], the IC50 in experiment [1] is 500 to 5000 nM; in experiment [2] it was 50 to 500 nM; in experiment [3], below 1000 nM; in experiment [4], 50 to 500 nM; in experiment [5], 1 to 10 µM. Further, the “SAM/MTA Ratio” value in experiment [2] (setting [6]) was “A (a Ki ratio greater than or equal to 10 fold between the Ki in the presence of SAM and the Ki in the presence of MTA)”. For the same molecule, the “MTAP Intact/Deleted Ratio” value in experiment [3] was “C* (an IC50 ratio of less than 3 fold between the IC50 in the HAP1 MTAP-intact cell line and the HAP1 MTAP-deleted cell line)”.
Turning to `Cc1c(OCc2cnco2)ccc2c1CCN(C[C@@H](O)CNC(=O)c1ccnc(NC3CC4(CCC4)C3)c1)C2` [Compound 473, (S)—N-(2-hydroxy-3-(5-methyl-6-(oxazol-5-ylmethoxy)-3,4-dihydroisoquinolin-2(1H)-yl)propyl)-2-(spiro[3.3]heptan-2-ylamino)isonicotinamide], the IC50 in experiment [1] was 500 to 5000 nM; in experiment [2], 50 to 500 nM; in experiment [3] it was 1000 to 10000 nM; in experiment [4], 50 to 500 nM; in experiment [5], at least 10 µM. Further, the “SAM/MTA Ratio” value in experiment [2] (setting [6]) is “A (a Ki ratio greater than or equal to 10 fold between the Ki in the presence of SAM and the Ki in the presence of MTA)”. In addition, the “MTAP Intact/Deleted Ratio” value in experiment [3] is “C* (an IC50 ratio of less than 3 fold between the IC50 in the HAP1 MTAP-intact cell line and the HAP1 MTAP-deleted cell line)”.
With `Cc1ncoc1COc1ccc2c(c1)CCN(C[C@@H](O)CNC(=O)c1cc(NC3CC4(CCC4)C3)nc(N3CCN(C(=O)C4CC4)CC3)c1)C2` [Compound 610, (S)-2-(4-(cyclopropanecarbonyl)piperazin-1-yl)-N-(2-hydroxy-3-(6-((4-methyloxazol-5-yl)methoxy)-3,4-dihydroisoquinolin-2(1H)-yl)propyl)-6-(spiro[3.3]heptan-2-ylamino)isonicotinamide], the IC50 in experiment [1] was 50 to 500 nM; in experiment [2], below 50 nM; in experiment [3], 1000 to 10000 nM; in experiment [4], 50 to 500 nM; in experiment [5], 1 to 10 µM. The “SAM/MTA Ratio” value in experiment [2] (setting [6]) is “A (a Ki ratio greater than or equal to 10 fold between the Ki in the presence of SAM and the Ki in the presence of MTA)”. In experiment [3], the “MTAP Intact/Deleted Ratio” value is “C* (an IC50 ratio of less than 3 fold between the IC50 in the HAP1 MTAP-intact cell line and the HAP1 MTAP-deleted cell line)”.
On to `O=C(NC[C@H](O)CN1CCc2cc(OCc3cnco3)ccc2C1)c1cncc(NC2CCOCC2)c1` [Compound 383], for which the IC50 in experiment [1] (read-out: No Co-factor IC50) is at least 5000 nM; in experiment [2] it was 500 to 5000 nM; in experiment [3], at least 10000 nM; in experiment [4], 500 to 5000 nM; in experiment [5], at least 10 µM. Moreover, the “SAM/MTA Ratio” value in experiment [2] (setting [7]) was “A (a Ki ratio greater than or equal to 10 fold between the Ki in the presence of SAM and the Ki in the presence of MTA)”. In addition, in experiment [3], the “MTAP Intact/Deleted Ratio” value is “C* (an IC50 ratio of less than 3 fold between the IC50 in the HAP1 MTAP-intact cell line and the HAP1 MTAP-deleted cell line)”.
